Source: patent US11708374B2, “Preparation of condensed triazepine derivatives and their use as BET inhibitors” (DYBLY AG, priority 2018, dated 2023)
Like-named read-outs stand apart in the source and are kept apart here.

Key:
[1] = system: collagen1A1; experiment: Anti-fibrotic effects: collagen1A1 production by LX2 cells treated with TGFbeta; format: cell-based; settings: 500 nM
From the text: (§1) Methods of culturing LX2 cells and measurements of Collagen1A1 and alphaActin1 mRNA contents are provided in Ding et al, Proc Natl Acad Sci USA 2015, 112:15713-15718

[2] = target: BRD4 (Homo sapiens, UniProt O60885); experiment: AlphaScreen assay, Bromodomain 4 inhibition; format: binding
Procedure: AlphaScreen assays were performed as described by Philpott et al Mol Biosyst. […] YSGRGK(Ac)GGK(Ac)GLGK(Ac)GGAK(Ac)RHRK (Biotin) peptide was used in the assays. Buffer conditions used in all experiments were 25 mM HEPES, pH 7.4, 100 mM NaCl, 0.1% BSA, supplemented with 0.05% CHAPS.

[3] = system: Interleukin 1beta (IL-1beta), Interleukin 6 (IL6) and TNF-alpha; experiment: LPS-stimulated cytokine production in whole human blood; format: cell-based; settings: 10 ng/ml LPS; for inhibition at 0.6 µM: 600 nM, 24 h, read-out: Inhibition of inflammatory cytokine production
Procedure: BET inhibitors were added (from 10 mM DMSO solutions) to whole human blood (anti-coagulated with heparin) during incubation for 24 h at 37° C. in the presence of 10 ng/ml Lipopolysaccharide (LPS). Final DMSO concentration was below 0.01%. Cytokines production with 0.01% DMSO alone in the absence of LPS were below detection level.

[4] = system: alphaActin1; experiment: Anti-fibrotic effects: alphaActin1 production by LX2 cells treated with TGFbeta; format: cell-based; settings: 500 nM
From the text: as §1

[5] = system: OPM-2; experiment: Inhibition of proliferation (Alamar Blue cell viability), OPM-2; format: cell-based; settings: Homo sapiens; Multiple myeloma, OPM-2, 72 h; read-out: Inhibition of cell growth, IC50
Procedure: (§2) A semi-log dilution was performed in 100% DMSO. Cells were cultured in DMEM containing 10% FCS and Penicillin/Streptomycin. For the assays, cells were seeded in 150 μL medium on a 96-well cell culture plate and incubated at 37° C. overnight before the compound was added. […] A day after cell seeding, 10 μL of prediluted compound was added to the cells (1:16 dilution). Treatment of cells with 0.1% DMSO and Staurosporine (1.0E-05 M) served as High control (100% viability) and Low control (0% viability), respectively
(§3) A day after cell seeding, the test compound was added to the medium to reach the final concentration and incubated for 72 h at 37° C. at 5% CO2 in air dependent on the medium. Subsequently 15 μL Alamar Blue reagent was added and fluorescence at 590 nm was measured after 3-5 h incubation at 37° C., 5% CO2 using a fluorometer.
(§4) Raw data were converted into percent cell viability relative to the high control (0.1% DMSO) and low control (1E-05M Staurosporine), which were set to 100% and 0%, respectively.

[6] = system: LP-1; experiment: Inhibition of proliferation (Alamar Blue cell viability), LP-1; format: cell-based; settings: Homo sapiens; Multiple myeloma, LP-1, 72 h; read-out: Inhibition of cell growth, IC50
Procedure: as §2, §3, §4

[7] = system: KMS-12-BM; experiment: Inhibition of proliferation (Alamar Blue cell viability), KMS-12-BM; format: cell-based; settings: Homo sapiens, Multiple myeloma, 72 h, read-out: Inhibition of cell growth, IC50
Procedure: as §2, §3, §4

[8] = system: KG1; experiment: Inhibition of proliferation (Alamar Blue cell viability), KG1; format: cell-based; settings: Homo sapiens, KG-1; AML, KG1, 72 h; read-out: Inhibition of cell growth, IC50
Procedure: as §2, §3, §4

[9] = system: CCL2; experiment: Production of the chemokine CCL2 by cultured human astrocytes (CCL2 mRNA); format: cell-based; settings: 250 nM, 24 h
Procedure: CCL2 mRNA content of control astrocytes, astrocytes incubated with 10 ug/ml Tumor Necrosis Factor alpha (TNFalpha) and 10 ug/ml Interferon alpha (IFNalpha) (T/I), astrocytes treated with 250 nM of “Compound 38” (referred to as “C4” in FIG. 2) and astrocytes which are pretreated with “Compound 38” (C4) for 1 hour before stimulation with T/I. Incubation period 24 h. Details on astrocyte culture and quantification of CCL2 mRNA are provided in Mizee et al. Acta Neuropathol (2014) 128:691-703. […] Co-addition of 250 nM of “Compound 38” decreased CCL2 production by 80% both in the absence and presence of TNFalpha/Interferon as shown in FIG. 2.

[10] = system: HL-60; experiment: Inhibition of proliferation (Alamar Blue cell viability), HL-60; format: cell-based; settings: Homo sapiens; AML, HL-60, 72 h; read-out: Inhibition of cell growth, IC50
Procedure: as §2, §3, §4

[11] = AlphaScreen, acetylated histone peptide, read-out: Potency as inhibitor of BRD4, IC-50

Row | SMILES | Reduction of collagen1A1 production [1] | IC50 [2, 11] [µM] | inhibition at 0.6 µM [3] [%] | Reduction of alphaActin1 production [4] | further results
1 | CCOC(=O)CN1N=C(c2ccc(Cl)cc2)c2c(sc(C)c2C)-n2c(C)nnc21 [Compound 41, Ethyl 2-(4-(4-chlorophenyl)-2,3,9-trimethyl-6H-thieno[2,3-e][1,2,4]triazolo[3,4-c][1,2,4]triazepin-6-yl)acetate] | reduced to an equal extent | 0.011 | > 80 | reduced to an equal extent | IC50 ([3]; 24 h at 37° C., read-out: Inhibition of production of IL-1beta, IL6 and TNF-alpha, IC50s): 0.006 to 0.06 µM
2 | Cc1sc2c(c1C)C(c1ccc(Cl)cc1)=NN(C)c1nnc(C)n1-2 [Compound 38, 4-(4-chlorophenyl)-2,3,6,9-tetramethyl-6H-thieno[2,3-e][1,2,4]triazolo[3,4-c][1,2,4]triazepine] | – | – | – | – | IC50 [5]: 0.26 µM; IC50 [6]: 0.36 µM; IC50 [7]: 0.27 µM; IC50 [8]: 0.81 µM; IC50 [2]: 0.15 µM; Decrease of CCL2 production ([9]; absence of TNFalpha/Interferon): 80%; Decrease of CCL2 production ([9]; presence of TNFalpha/Interferon): 80%; IC50 [10]: 0.81 µM
3 | Cc1sc2c(c1C)C(c1ccc(Cl)cc1)=N[C@@H](CC(=O)OC(C)(C)C)c1nnc(C)n1-2 [(+)JQ1, reference compound] | reduced to an equal extent | – | ~30 | reduced to an equal extent | –
4 | Cc1sc2c(c1C)C(c1ccc(Cl)cc1)=NN(CC(=O)OC(C)(C)C)c1nnc(C)n1-2 [Compound 43, tert-butyl 2-(4-(4-chlorophenyl)-2,3,9-trimethyl-6H-thieno[2,3-e][1,2,4]triazolo[3,4-c][1,2,4]triazepin-6-yl)acetate] | less inhibition | 0.1 | – | less inhibition | –
5 | Cc1sc2c(c1C)C(c1ccc(Cl)cc1)=NN(CC(=O)O)c1nnc(C)n1-2.Cl [Compound 42, 2-(4-(4-chlorophenyl)-2,3,9-trimethyl-6H-thieno[2,3-e][1,2,4]triazolo[3,4-c][1,2,4]triazepin-6-yl)acetic acid hydrochloride] | less inhibition | 0.29 | – | less inhibition | –
